Results on three compounds are retold here after PMC3727903 (Bioorganic & medicinal chemistry letters, 2012).

SMILES strings stand for the structures.

In assay [1] the test system is PGE2 production in HCA-7 colon cancer cells. Kind of assay: PGE2 production assay in IL-1β-treated HCA-7 cells. The class given is cell-based. The note with it: Homo sapiens, HCA-7, read-out: PGE2 (%): % of inhibition of PGE2 levels in HCA-7 cells, 1 μM concentration; ± SD (n = 3); NR = no observed reduction.
For a further assay, the target named is T1, COX-2 (Homo sapiens, UniProt P35354).
T1 sequence (P35354 18-604): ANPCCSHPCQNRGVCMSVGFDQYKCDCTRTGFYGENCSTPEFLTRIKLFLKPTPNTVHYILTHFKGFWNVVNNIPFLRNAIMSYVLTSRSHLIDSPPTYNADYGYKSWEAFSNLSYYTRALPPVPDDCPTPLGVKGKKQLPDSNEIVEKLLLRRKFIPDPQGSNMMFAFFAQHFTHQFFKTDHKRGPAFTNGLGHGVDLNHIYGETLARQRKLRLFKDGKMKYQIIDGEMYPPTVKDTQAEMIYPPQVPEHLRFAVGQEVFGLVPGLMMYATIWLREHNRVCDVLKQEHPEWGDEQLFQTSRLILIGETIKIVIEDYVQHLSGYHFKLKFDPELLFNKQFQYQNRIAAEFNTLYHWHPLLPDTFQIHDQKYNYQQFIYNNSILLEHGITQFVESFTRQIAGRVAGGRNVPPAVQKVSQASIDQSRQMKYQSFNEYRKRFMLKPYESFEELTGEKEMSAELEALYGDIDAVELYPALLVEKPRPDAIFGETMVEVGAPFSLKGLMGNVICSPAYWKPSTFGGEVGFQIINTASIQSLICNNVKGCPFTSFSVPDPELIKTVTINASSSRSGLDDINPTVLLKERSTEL
Kind of assay: COX-2 cell-free assay. The note with it: read-out: COX-2 (%): % of inhibition of COX-2 levels in vitro.

Consider `O=C(c1ccccc1)c1sc(Nc2ccc3c(c2)OCO3)nc1-c1ccccc1` [5a], for which the inhibition at 1 µM in assay [1] was under 0%.

As for `COc1ccc(Nc2nc(-c3ccccc3)c(C(=O)c3ccccc3)s2)cc1` [5c], the inhibition at 1 µM in assay [1] was under 0%.

On to `Cc1nc(Nc2ccc(Oc3ccccc3)cc2)sc1C(C)O` (stereo not drawn) [5l], for which, at COX-2, the inhibition at 5 µM was -16.9 ± 10%.
